Patent US9034863B2, “Compositions and methods for inhibiting entry of a hepatic virus” (The Board of Trustees of the University of Illinois, priority 2008, dated 2015)
“Also recorded” adds a separate entry of the source.

How the values were obtained:
Type in all cases: cell-based, Hepatitis C virus (HCV)
[1] = tested on: HCV genotype 2a subgenomic replicon; assay: HCV sg2a replicon RNA replication in Huh7 cells, RT-qPCR; conditions: 72 hours post-treatment
Source text: Huh7 cells, also known as Huh7/scr cells, are well-known in the art (Zhong, et al. (2005) Proc. Natl. Acad. Sci. USA 102, 9294-99; Gastaminza, et al. (2006) J. Virol. 80:11074-81; Zhong, et al. (2006) J. Virol. 80:11082-93; Sainz et al. (2009) PLoS ONE 4:e6561). […] The HCV sg2a replicon was established as previously described (Uprichard, et al. (2006) Virol. J. 3:89). Briefly the HCV genotype 2a subgenomic replicon RNA (psgJFH1; Kato, et al. (2003) Gastroenterology 125:1808-17) was XbaI linearized, in vitro transcribed using […] T7 (Ambion, Austin, Tex.) and transfected into cells using a modified electroporation protocol (Krieger, et al. (2001) J. Virol. 75(10):4614-24). All cells were cultured in complete Dulbecco's modified Eagle's medium (cDMEM) (Hyclone, Logan, Utah) supplemented with 10% fetal bovine serum (FBS) (Hyclone), 100 units/ml penicillin, […] streptomycin, and 2 mM L-glutamine (Gibco Invitrogen, Carlsbad, Calif.) and 500 μg/ml geneticin ((Invitrogen) for HCV replicon cells only).
Total cellular RNA was purified using an ABI PRISM™ 6100 Nucleic Acid PrepStation (Applied Biosystems), as per the manufacturer's instructions. […] HCV JFH-1 and human GAPDH RNA transcript levels were determined relative to a standard curve derived from serial dilutions of plasmid containing the JFH-1 HCV cDNA or the human GAPDH coding sequence, respectively. […]

HCVcc JFH-1 = assay: HCV binding versus internalization, cell-associated HCV RNA (FIG. 1)
Procedure: Monolayers of human hepatoma cell line Huh7 were inoculated with HCVcc JFH-1 (cell culture produced HCV JFH-1, which is a specific HCV clone isolated from a Japanese Fulminant Hepatitis patient) at an MOI of 0.1 FFU/cell for 6 hours in the presence or absence of increasing concentrations of ezetimibe. Cultures were washed extensively and cell associated RNA was collected 6 and 30 hours post-infection (p.i.) to determine the amount of bound and internalized virus, respectively. […] Results are graphed as means±s.e.m. for triplicate samples. The data presented are representative of three independent experiments. Assay background (i.e., HCV RNA level detected in uninfected samples) is equal to ˜0.5−1.0×10^2 copies/μg total cellular RNA. Significant reduction in HCV RNA levels relative to mock-treated cultures is denoted by a single asterisk (p<0.05, one-way ANOVA and Tukey's post hoc t test).
To decipher whether ezetimibe inhibits HCV cellular binding or subsequent internalization, cell-associated HCV RNA and protein in mock- and ezetimibe-treated HCVcc-infected cultures was examined.

HCV = assay: Chronic HCV infection treated with IFN-β and ezetimibe, weekly RT-qPCR for 8 weeks; conditions: alone, during 8 weeks
Source text: Intracellular RNA was collected from triplicate wells weekly for 8 weeks post-treatment and HCV RNA was quantified by RT-qPCR.

HCVcc = assay: Steady-state HCVcc RNA levels in chronically infected Huh7 cultures, 24-96 h; conditions: 30 μM, 24-96 hours post-treatment
Procedure: Huh7 cultures were inoculated with HCVcc at an MOI of 0.01 FFU cell-1. Infected cultures were maintained for an additional 10 days to allow HCV RNA to reach steady-state levels. Cultures were then vehicle-treated, treated with ezetimibe (30 μM) or 2′-C-methylcytidine (12.5 μM). Fresh medium containing the specified treatments was replenished every day throughout the course of the experiment. Intracellular RNA was collected from triplicate wells at 24, 48, 72 and 96 hours post-treatment and HCV RNA was quantified by RT-qPCR and normalized to GAPDH.

`O=C1[C@H](CC[C@H](O)c2ccc(F)cc2)[C@@H](c2ccc(O)cc2)N1c1ccc(F)cc1` [ezetimibe, 1-(4-fluorophenyl)-(3R)-[3-(4-fluorophenyl)-(3S)-hydroxypropyl]-(45)-(4-hydroxyphenyl)-2-azetidinone] was tested, and the “sg2a HCV RNA levels” value [1] was “did not inhibit HCV subgenomic RNA replication; also recorded: no significant reduction”, the “virion binding (cell-associated HCV RNA)” value (HCVcc JFH-1; 6 hours p.i.) was “not binding” and the “HCV entry/internalization (HCV RNA expansion, de novo NS5A expression)” value (HCVcc JFH-1; later time points (30 hours p.i.)) was “inhibits HCV internalization”. For the same compound, the “steady-state intracellular HCV RNA levels” value (HCV) was “did not reduce HCV infection” and the “steady state HCVcc RNA levels” value (HCVcc) was “did not inhibit steady state HCVcc RNA levels”.
